# Test results taken from article PMC10112521, “High-throughput AR dimerization assay identifies androgen disrupting chemicals and metabolites” (Frontiers in Toxicology, 2023).
# Read-outs that look alike come from different tables or passages of the source.
# Assays:
# [1] = test system: full-length human AR and the receptor interacting domain (RID) of SRC1; design: method as in U.S. EPA, 2002b; settings: activity call, single protocol detects agonists and antagonists, invitroDBv3.4 ref U.S. EPA, 2002b, cited from earlier work
# [2] = test system: human AR (LBD and AF2 domains) and the RID of human SRC2; design: method as in U.S. EPA, 2002b; settings: activity call, agonist mode, 2 h; invitroDBv3.4 ref U.S. EPA, 2002b; cited from earlier work
# [3] = test system: human AR (LBD and AF2 domains) and the RID of human SRC2; design: method as in U.S. EPA, 2002b; settings: activity call, antagonist mode, 2 h; invitroDBv3.4 ref U.S. EPA, 2002b; cited from earlier work
# AR = test system: AR; design: method as in Kleinstreuer et al., 2017; settings: 2017, cited from earlier work; for Agonist reference: AR agonist reference class ref Kleinstreuer et al.; for Antagonist reference: AR antagonist reference class ref Kleinstreuer et al.
# AR2 cells (HepG2-AR2) [4] = assay: Alamar Blue (resazurin) post hoc cell viability / cytotoxicity assay in AR2 cells; settings: spid Viability, sheet antagonist_fits; for hill_tp (Hill model top): 0 where win_model is Constant
# Description: (§1) For antagonist mode and cytotoxicity data, well-level normalized response (resp) was calculated as: resp=100 * RLU−bval/pval−bval where pval is the median RLU value of the MEC positive control wells (minimum four wells).
# human AR [5] = target: T1, human AR (Homo sapiens, UniProt P10275); assay: AR2 assay, agonist mode: ligand-dependent AR homodimerization (NanoBiT luciferase complementation) in stable HepG2-AR2 cells; assay type: cell-based; settings: for hill_tp: Hill model top (efficacy); for max_med: maximum median response; for win_model: winning concentration-response model (Constant, Hill, Gain-Loss);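 as to hill tp: Log2 fold change of luminescence over DMSO vehicle wells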;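 as to max med: Log2 fold change of luminescence over DMSO vehicle wells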
# T1 sequence (P10275 1-920) 1: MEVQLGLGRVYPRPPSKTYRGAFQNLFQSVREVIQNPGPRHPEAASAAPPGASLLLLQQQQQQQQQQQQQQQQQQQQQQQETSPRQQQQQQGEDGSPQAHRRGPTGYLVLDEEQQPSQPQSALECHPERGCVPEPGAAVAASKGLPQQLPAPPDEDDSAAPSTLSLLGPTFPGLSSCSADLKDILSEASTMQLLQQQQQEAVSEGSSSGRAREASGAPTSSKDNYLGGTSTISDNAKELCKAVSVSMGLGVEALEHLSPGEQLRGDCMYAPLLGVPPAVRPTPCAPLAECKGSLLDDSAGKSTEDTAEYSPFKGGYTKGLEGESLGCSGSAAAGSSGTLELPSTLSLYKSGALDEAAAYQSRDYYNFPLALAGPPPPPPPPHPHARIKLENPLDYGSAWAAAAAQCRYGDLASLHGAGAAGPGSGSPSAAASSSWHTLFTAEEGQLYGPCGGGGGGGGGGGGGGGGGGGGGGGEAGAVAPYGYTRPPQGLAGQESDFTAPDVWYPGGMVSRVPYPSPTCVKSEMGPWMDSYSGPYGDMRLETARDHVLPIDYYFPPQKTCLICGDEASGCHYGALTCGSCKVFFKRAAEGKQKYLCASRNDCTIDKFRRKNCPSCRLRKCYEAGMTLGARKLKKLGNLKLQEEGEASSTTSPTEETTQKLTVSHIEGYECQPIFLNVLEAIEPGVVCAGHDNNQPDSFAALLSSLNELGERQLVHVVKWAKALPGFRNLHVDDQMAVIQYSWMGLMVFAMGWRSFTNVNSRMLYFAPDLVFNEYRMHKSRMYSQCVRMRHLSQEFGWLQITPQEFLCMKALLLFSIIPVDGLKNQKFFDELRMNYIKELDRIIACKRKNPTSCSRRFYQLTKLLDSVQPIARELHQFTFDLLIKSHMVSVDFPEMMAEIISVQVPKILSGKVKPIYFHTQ
# T1 sequence (P10275 1-920) 2: T1 sequence (P10275 1-920) 1
# human AR [6] = target: T1, human AR; assay: AR2 assay, antagonist mode: disruption of R1881 (10 nM)-induced AR homodimerization in HepG2-AR2 cells; assay type: cell-based; settings: for hill_gw (Hill model slope): 0 where win_model is Constant; for AR2 antagonist: activity call, antagonist mode, 18 h
# AR2 cells (HepG2-AR2) [7] = test system: AR2 cells (HepG2-AR2)
# Description: as §1
# human AR [8] = target: T1, human AR; assay: cell-based; design: species or system AR2 cells (HepG2-AR2); NanoLuc complementation AR homodimerization, antagonist mode, loss of agonist-induced luminescence, AC50 by Hill fit; settings: hill_ga, antagonist mode, 10 nM agonist stimulus, 18 h, no CYP expressed
# human AR [9] = target: T1, human AR; assay: cell-based; design: species or system AR2 cells (HepG2-AR2); NanoLuc complementation AR homodimerization, agonist mode, luminescence gain, AC50 by Hill fit; settings: hill_ga, spid=Bgal; agonist mode, 18 h, no CYP expressed
# [10] = sheet agonist_fits, 0 given where win_model is Constant
# [11] = spid AR_antagonist, sheet antagonist_fits
# [12] = spid AR_antagonist, sheet antagonist_fits, Hill fit parameter
SMILES,OT 8 hr [1],OT 16 hr [1],UPitt agonist [2],UPitt antagonist [3],Agonist reference (AR),Antagonist reference (AR),Antagonist reference (AR; Supplementary Table S1),max_med (maximum median response) (AR2 cells (HepG2-AR2) [4]),hill_tp (Hill model top) (AR2 cells (HepG2-AR2) [4]),hill_tp (human AR [5]; [10]),max_med (human AR [5]; sheet agonist_fits),win_model (human AR [5]; sheet agonist_fits),hill_tp (Hill model top) (human AR [6]),max_med (maximum median response) (human AR [6]),win_model (winning concentration-response model) (human AR [6]; [11]),hill_gw (Hill model slope) (human AR [6]; [11]),hill_ga (Hill model log AC50) (AR2 cells (HepG2-AR2) [7]),AC50 (human AR [8]; spid=Bgal),AC50 (human AR [8]; spid=No_RNA),AR2 antagonist (human AR [6]),also measured
CC(=O)O[C@]1(C(C)=O)CC[C@H]2[C@@H]3C=C(Cl)C4=CC(=O)[C@@H]5C[C@@H]5[C@]4(C)[C@H]3CC[C@@]21C [Cyproterone acetate],1,1,1,1,Weak,Moderate,Moderate,16.8337,12.2685,–,–,–,–,–,–,–,–,–,–,–,Agonist reference (AR; Supplementary Table S1): Weak
CC#C[C@]1(O)CC[C@H]2[C@@H]3CCC4=CC(=O)CCC4=C3[C@@H](c3ccc(N(C)C)cc3)C[C@@]21C [Mifepristone],1,1,–,1,–,Strong,Strong,9.555,0,–,–,–,–,–,–,–,–,–,–,–,–
CC1(C)C(C=C(Cl)Cl)C1C(=O)OCc1cccc(Oc2ccccc2)c1 (stereo not drawn) [Permethrin],0,0,0,–,Inactive,–,–,5.481,0,0,0.006626,Constant,63.3496,53.132,Hill,1.786,0,27.5 µM,47.3 µM,–,"AR2 agonist (human AR [5]; activity call, agonist mode, 18 h): 0"
CC12CC1(C)C(=O)N(c1cc(Cl)cc(Cl)c1)C2=O (stereo not drawn) [Procymidone],0,0,–,1,–,Weak,Weak,14.9874,19.1789,0.2332,0.2214,Hill,–,95.0019,Hill,0.938,-1.506,3.84 µM,4.23 µM,1,"hill_gw (human AR [5]; sheet agonist_fits, Hill model gain slope (Hill coefficient), 0 given where win_model is Constant): 8; AC50 (human AR [9]): > 99.9 µM"
CCCC1COC(Cn2cncn2)(c2ccc(Cl)cc2Cl)O1 (stereo not drawn) [Propiconazole],1,1,–,1,–,Weak,Weak,5.206,0,0,0.05395,Constant,116.132,96.3637,Hill,1.532,–,33.8 µM,32.2 µM,1,–
C[C@H]1CCCC(=O)CCC/C=C/c2cc(O)cc(O)c2C(=O)O1 [Zearalenone],0,0,–,1,–,Weak,Weak,41.4682,–,0,0.2969,Constant,–,–,–,–,–,9.73 µM,7.46 µM,1,"max_med (maximum median response) (human AR [6]; [11]): 103.904; win_model (winning curve-fit model) (human AR [6]; spid AR_antagonist, sheet antagonist_fits, Constant = no concentration response): Hill; hill_gw (Hill model slope/Hill coefficient) (human AR [6]; [12]): 2.042; hill_tp (Hill model top of curve) (human AR [6]; [12]): 105.112; hill_tp (Hill model top of curve) (AR2 cells (HepG2-AR2) [4]; Hill fit parameter): 49.8014"
